We go through 20 compounds from patent US12258329B2 (Merck Sharp & Dohme LLC, priority 2018, dated 2025).

Like-named read-outs stand apart in the source and are kept apart here.

The test system of the assay is infected PBMCs (VSV-G pseudotyped HIV virus VSV-G/pNLG1-P2A-ΔEnv). Description: cells. Type of assay: cell-based, human. The following applies: read-out: TACK EC50.

Consider “3-((4-(1, 1-difluoroethyl)-1-((2,4- dimethyl-6-oxo-1,6-dihydropyrimidin- 5-y1)methyl)-6-oxo-1,6- dihydropyrimidin-5-yl)oxy)-2,4,5- trifluorobenzonitrile [Example 14]”, for which the EC50 – broadly, the concentration needed to bring the measured effect to its halfway point – worked out at 343 nM. `COc1c(C#N)cc(C(F)F)cc1Oc1c(C(F)(F)C(F)F)ncn(Cc2cnc(C)[nH]c2=O)c1=O` [Example 1, 5-(difluoromethyl)-2-methoxy-3-((1-((2-methyl-6-oxo-1,6-dihydropyrimidin-5-yl)methyl)-6-oxo-4-(1,1,2,2-tetrafluoroethyl)-1,6-dihydropyrimidin-5-yl)oxy)benzonitrile]: the EC50 (Homo sapiens, PBMC) turned out to be 431 nM. Same read-out and setting: next, `Cc1nc(C)c(Cn2cnc(C(C)(F)F)c(Oc3cc(C#N)cc(C(F)F)c3)c2=O)c(=O)[nH]1` [Example 23, 3-((4-(1,1-difluoroethyl)-1-((2,4-dimethyl-6-oxo-1,6-dihydropyrimidin-5-yl)methyl)-6-oxo-1,6-dihydropyrimidin-5-yl)oxy)-5-(difluoromethyl)benzonitrile]: 429 nM; `Cc1nc(C)c(Cn2cnc(C(C)F)c(Oc3cc(C(F)F)cc(C#N)c3C)c2=O)c(=O)[nH]1` (single isomer, unassigned) [Example 28]: 208 nM.

As for `Cc1nc(C)c(Cn2cnc(C(F)(F)C(F)(F)F)c(Oc3cc(Cl)cc(C#N)c3C)c2=O)c(=O)[nH]1` [Example 72, 5-chloro-3-((1-((2,4-dimethyl-6-oxo-1,6-dihydropyrimidin-5-yl)methyl)-6-oxo-4-(perfluoroethyl)-1,6-dihydro-pyrimidin-5-yl)oxy)-2-methylbenzonitrile], the EC50 (Homo sapiens, PBMC) came out at 377 nM. Same read-out and setting: the same measure for `CCc1nc(C)[nH]c(=O)c1Cn1cnc(C(F)(F)C(F)F)c(Oc2cc(C(F)F)cc(C#N)c2C)c1=O` [Example 61, 5-(difluoromethyl)-3-((1-((4-ethyl-2-methyl-6-oxo-1,6-dihydropyrimidin-5-yl)methyl)-6-oxo-4-(1,1,2,2-tetrafluoroethyl)-1,6-dihydropyrimidin-5-yl)oxy)-2-methylbenzonitrile]: 485 nM; for `Cc1nc(C)c(Cn2cnc(C(F)(F)C(F)(F)F)c(Oc3c(C)cc(C#N)cc3Cl)c2=O)c(=O)[nH]1` [Example 95, 3-chloro-4-((1-((2,4-dimethyl-6-oxo-1,6-dihydropyrimidin-5-yl)methyl)-6-oxo-4-(perfluoroethyl)-1,6-dihydropyrimidin-5-yl)oxy)-5-methylbenzonitrile]: 179 nM.

In the case of `Cc1nc(C)c(Cn2cnc(C(C)(F)F)c(Oc3c(Cl)cc(C#N)cc3Cl)c2=O)c(=O)[nH]1` [Example 13, 3,5-dichloro-4-((4-(1,1-difluoroethyl)-1-((2,4-dimethyl-6-oxo-1,6-dihydropyrimidin-5-yl)methyl)-6-oxo-1,6-dihydropyrimidin-5-yl)oxy) benzonitrile], the EC50 (Homo sapiens, PBMC) came to 395 nM. Turning to `Cc1nc(CF)c(Cn2cnc(C(F)(F)C(F)(F)F)c(Oc3cc(C(F)F)cc(C#N)c3C)c2=O)c(=O)[nH]1` [Example 64, 5-(difluoromethyl)-3-((1-((4-(fluoromethyl)-2-methyl-6-oxo-1,6-dihydropyrimidin-5-yl)methyl)-6-oxo-4-(perfluoroethyl)-1,6-dihydropyrimidin-5-yl)oxy)-2-methylbenzonitrile], for the setting “Homo sapiens, PBMC”, the EC50 turned out to be 162 nM.

For the compound `Cc1nc(C)c(Cn2cnc(C(C)F)c(Oc3cc(C(F)F)cc(C#N)c3C)c2=O)c(=O)[nH]1` (single isomer, unassigned) [Example 29], the EC50 came to 312 nM.

For `Cc1nc(C)c(Cn2cnc(C(F)(F)C(F)F)c(Oc3c(Cl)cc(C#N)cc3Cl)c2=O)c(=O)[nH]1` [Example 97, 3,5-dichloro-4-((1-((2,4-dimethyl-6-oxo-1,6-dihydropyrimidin-5-yl)methyl)-6-oxo-4-(1,1,2,2-tetrafluoroethyl)-1,6-dihydropyrimidin-5-yl)oxy)benzonitrile], where the note is “Homo sapiens, PBMC”, the concentration for a half-maximal effect (EC50) was found to be 182 nM.

On to `Cc1ncc(Cn2cnc(C(F)(F)C(F)(F)F)c(Oc3cc(C(F)F)cc(C#N)c3C)c2=O)c(=O)[nH]1` [Example 67, 5-(difluoromethyl)-2-methyl-3-((1-((2-methyl-6-oxo-1,6-dihydropyrimidin-5-yl)methyl)-6-oxo-4-(perfluoroethyl)-1,6-dihydropyrimidin-5-yl)oxy)benzonitrile], for which the EC50 (Homo sapiens, PBMC) was found to be 174 nM. The same measure, in the same setting: next, `Cc1nc(COc2ncccn2)[nH]c(=O)c1Cn1cnc(C(C)(F)F)c(Oc2cc(Cl)cc(C#N)c2F)c1=O` [Example 24, 5-chloro-3-((4-(1,1-difluoroethyl)-1-((4-methyl-6-oxo-2-((pyrimidin-2-yloxy)methyl)-1,6-dihydropyrimidin-5-yl)methyl)-6-oxo-1,6-dihydropyrimidin-5-yl)oxy)-2-fluorobenzonitrile]: 339 nM; `Cc1nc(C)c(Cn2cnc(C(C)F)c(Oc3cc(Cl)cc(C#N)c3F)c2=O)c(=O)[nH]1` (single isomer, unassigned) [Example 30]: 206 nM.

For the compound `Cc1nc(C)c(Cn2cnc(C(F)(F)C(F)F)c(Oc3cc(C(F)F)cc(C#N)c3C)c2=O)c(=O)[nH]1` [Example 66, 5-(difluoromethyl)-3-((1-((2,4-dimethyl-6-oxo-1,6-dihydropyrimidin-5-yl)methyl)-6-oxo-4-(1,1,2,2-tetrafluoroethyl)-1,6-dihydropyrimidin-5-yl)oxy)-2-methylbenzonitrile], the EC50 (Homo sapiens, PBMC) was found to be 262 nM. Same read-out and setting: the same measure for `Cc1nc(C)c(Cn2cnc(C(C)(F)F)c(Oc3cc(C(F)F)cc(C#N)c3F)c2=O)c(=O)[nH]1` [Example 15, 3-((4-(1,1-difluoroethyl)-1-((2,4-dimethyl-6-oxo-1,6-dihydropyrimidin-5-yl)methyl)-6-oxo-. 1,6-dihydropyrimidin-5-yl)oxy)-5-(difluoromethyl)-2-fluorobenzonitrile]: 245 nM. For `COc1c(C#N)cc(C(F)F)cc1Oc1c(C(C)F)ncn(Cc2c(C)nc(C)[nH]c2=O)c1=O` (single isomer, unassigned) [Example 35], the EC50 was found to be 351 nM.

On to `Cc1nc(C)c(Cn2cnc(C(C)F)c(Oc3cc(C(F)F)cc(C#N)c3F)c2=O)c(=O)[nH]1` (single isomer, unassigned) [Example 33, (R) or (S)-5-(difluoromethyl)-3-((1-((2,4-dimethyl-6-oxo-1,6-dihydropyrimidin-5-yl)methyl)-4-(1-fluoroethyl)-6-oxo-1,6-dihydropyrimidin-5-yl)oxy)-2-fluorobenzonitrile], for which the EC50 was 208 nM.

With `Cc1cc(C#N)c(F)c(Oc2c(C(F)(F)C(F)F)ncn(Cc3c(C)nc(C)[nH]c3=O)c2=O)c1` [Example 40, 3-((1-((2,4-dimethyl-6-oxo-1,6-dihydropyrimidin-5-yl)methyl)-6-oxo-4-(1,1,2,2-tetrafluoroethyl)-1,6-dihydropyrimidin-5-yl)oxy)-2-fluoro-5-methylbenzonitrile], the EC50 (Homo sapiens, PBMC) came out at 198 nM.

Take `Cc1cc(C#N)c(F)c(Oc2c(C(C)(F)F)ncn(Cc3c(C)nc(C)[nH]c3=O)c2=O)c1` [Example 41, 3-((4-(1,1-difluoroethyl)-1-((2,4-dimethyl-6-oxo-1,6-dihydropyrimidin-5-yl)methyl)-6-oxo-1,6-dihydropyrimidin-5-yl)oxy)-2-fluoro-5-methylbenzonitrile]: the EC50 (Homo sapiens, PBMC) was found to be 363 nM.
